In patent US20030100769A1, “Cyclic amidine compounds” (priority 2000, published 2003):
Read-outs that look alike come from different tables or passages of the source.

Tests used:
[1] = target: T1, α4β2 subtype of nicotinic acetylcholine receptors (Rattus norvegicus, UniProt P09483+P12390); test: Binding assay at α4β2 subtype of nicotinic acetylcholine receptors ([3H]-cytisine, rat brain membrane)
T1 construct: examined using rat brain membrane obtained from whole homogenized brain; from tissue; host or cells: rat whole brain membranes (Fischer-344 male rats)
From the text: (§1) The methods for evaluating the binding capabilities of the compounds at nicotinic acetylcholine receptors are different by subtypes of receptors. The binding capabilities of the compounds at α4β2 nicotinic acetylcholine receptors are examined using rat brain membrane obtained from whole homogenized brain, and determining the inhibiting rate of the compounds against [^3H]-cytisine binding to said brain membrane. Furthermore, the binding capabilities of the compounds at α1β1γδ nicotinic acetylcholine receptors are examined using homogenized rat muscle, and determining the inhibiting rate of the compounds against [^3H]-α-bungarotoxin binding to said muscle homogenate.
Binding Assays at α4β2 Subtype of Nicotinic Acetylcholine Receptors
(1) Preparation of Rat Brain Membrane Containing α4β2 Subtype of Nicotinic Acetylcholine Receptors
Rats were housed in the breeding cage controlled of the room temperature at 23±1° C., and the humidity of 55±5% for 1 to 4 weeks. Rats (3 to 4 rats per a cage) were housed with lights on for 12 hours daily (from 7:00 to 19:00), and allowed free access to food and water.
Preparation of rat brain membrane containing α4β2 subtype of nicotinic acetylcholine receptors was performed as follow. That is, rat brains were isolated just after sacrificed by decapitation, washed with ice-cooled saline solution and then frozen at −80° C. with liquid nitrogen and stored till using. After thawing the frozen brain, the brain was homogenized in 10 volumes of ice-cooled buffer solution (50 mM of Tris-HCl, 120 mM of NaCl, 5 mM of KCl, 1 mM of MgCl2, 2 mM of CaCl2; pH 7.4; 4° C.) using homogenizer (HG30, Hitachi Kohki Ltd.) for 30 seconds, and the homogenate were centrifuged under 1,000×G for 10 minutes at 4° C. The resulting supernatant was separated and the pellet was homogenized again with half volume of aforementioned prior buffer solution and centrifuged under the same conditions. Combined supernatant was further centrifuged under 40,000×G for 20 minutes at 4° C. The pellet was suspended in buffer solution and used for binding assays at receptors.
(2) Experiments of α4β2 Subtype of Nicotinic Acetylcholine Receptors Binding
Suspensions of membrane pellets containing 400-600 μg of protein were added to test tubes containing test compounds and [^3H]-cytisine (2 nM) in a final volume of 200 μl and incubated for 75 minutes in ice-cooled bath. The samples were isolated by vacuum filtration onto Whatman GF/B filters, which were prerinsed with 0.5% polyethylenimine just prior to sample filtration, using Brandel multi manifold cell harvester. The filters were rapidly washed with buffer solution (3×1 ml). The filters were counted in 3 ml of clearsol I (Nacalai Tesque Inc.).
The analyses of the experimental results were conducted by using the Accufit Competition Program (Beckman Ltd.).

[2] = target: α1β1γδ subtype of nicotinic acetylcholine receptors (Rattus norvegicus, UniProt P18916+P25108+P25109+P25110); test: biochemical; assay type: binding; settings: for remaining activity at 100 µM: read-out: control % of [3H]-α-Bgt binding at 100 μM of test compound; for remaining activity at 1000 µM: read-out: control % of [3H]-α-Bgt binding at 1,000 μM of test compound
From the text: as §1
Binding Assays at α1β1γδ Subtype of Nicotinic Acetylcholine Receptors
The affinity of the compounds of the present invention to α1β1γδ subtype of nicotinic acetylcholine receptors was measured by the following method, which was modified method described by Garcha H. S., Thomas P., Spivak C.
(1) Preparation of Rat Skeletal Muscles Containing α1β1γδ Subtype of Nicotinic Acetylcholine Receptors
The substantially same animals described in the Biological Experiment 1 were used.
The isolation of α1β1γδ subtype of nicotinic acetylcholine receptors was performed as follow. That is, rat posterior skeletal muscles were isolated just after sacrificed by decapitation, washed with ice-cooled saline solution and then frozen at −80° C. with liquid nitrogen and stored till using. After thawing the frozen muscles, tissue was homogenized ([…]) with buffer solution [2.5 mM of sodium phosphate buffer (pH:7.2), 90 mM of NaCl, 2 mM of KCl, 1 mM of EDTA, 2 mM of benzamidine, 0.1 mM of benzethonium chloride, 0.1 mM of PMSF, 0.01% of sodium azide] in Waring blender (Waring blender 34BL97; WARING PRODUCTS DIVISION DYNAMICS CORPORATION OF AMERICA) for 60 seconds. The homogenate were centrifuged under 20,000×G for 60 minutes at 4° C. The supernatant was separated and the resulting pellet was added to the same buffer (1.5 ml/g wet weight), and homogenized under the same conditions. Triton X100 (2% w/v) was added and the mixture was stirred for 3 hours at 4° C. The centrifugation at 100,000×G for 60 minutes at 4° C. yielded the rat muscle extract as supernatant. This was stored at 4° C. for up to 4 weeks, and used for binding assays at receptors.
(2) Experiments of α1β1γδ Subtype of Nicotinic Acetylcholine Receptors Binding
Receptors binding experiments were performed as follow. That is, the extract of rat muscle containing 600-900 μg of protein was added to test tubes containing test compounds and incubated for 15 minutes at 37° C. Then, to this mixture was added 1 nM of [^3H]-α-bungarotoxin (α-Bgt) and further incubated for 2 hours. The samples were isolated by vacuum filtration onto Whatman GF/B filters, which were prerinsed with 0.5% polyethylenimine just prior to sample filtration, using Brandel multi manifold cell harvester. The filters were rapidly rinsed with washing solution (10 mM of KH2PO4, 150 mM of NaCl, pH 7.2, room temperature) (5×1 ml). The filters were counted in 3 ml of clearsol I (Nacalai Tesque Inc.). The determination of nonspecific binding was incubated in the presence of 1 μM α-Bgt. […] In the receptor binding experiments, said buffer solution was added for adjusting the final concentration of BSA to be 0.05%.
The analyses of the experimental results were conducted by the same way as described in the Biological Experiment 1.

[3] = rat brain membrane, [3H]-cytisine 2 nM, read-out: Affinities for receptors Ki α4β2

T1 sequence (P09483 31-630): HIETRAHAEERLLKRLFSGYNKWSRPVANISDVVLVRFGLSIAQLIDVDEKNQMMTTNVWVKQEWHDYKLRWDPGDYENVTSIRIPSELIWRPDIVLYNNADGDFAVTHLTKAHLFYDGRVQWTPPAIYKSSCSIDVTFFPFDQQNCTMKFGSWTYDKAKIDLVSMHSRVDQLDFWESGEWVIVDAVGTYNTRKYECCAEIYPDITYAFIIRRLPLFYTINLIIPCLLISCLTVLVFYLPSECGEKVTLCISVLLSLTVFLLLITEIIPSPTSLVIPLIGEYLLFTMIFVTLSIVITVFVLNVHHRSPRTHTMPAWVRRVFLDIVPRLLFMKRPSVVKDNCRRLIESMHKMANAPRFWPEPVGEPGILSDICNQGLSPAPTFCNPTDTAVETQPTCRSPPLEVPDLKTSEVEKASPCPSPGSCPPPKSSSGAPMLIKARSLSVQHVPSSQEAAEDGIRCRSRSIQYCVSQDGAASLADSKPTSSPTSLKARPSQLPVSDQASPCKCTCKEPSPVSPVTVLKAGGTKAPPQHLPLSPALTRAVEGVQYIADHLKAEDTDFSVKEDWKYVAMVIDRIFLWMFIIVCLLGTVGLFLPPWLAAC
T1 sequence (P12390 25-500): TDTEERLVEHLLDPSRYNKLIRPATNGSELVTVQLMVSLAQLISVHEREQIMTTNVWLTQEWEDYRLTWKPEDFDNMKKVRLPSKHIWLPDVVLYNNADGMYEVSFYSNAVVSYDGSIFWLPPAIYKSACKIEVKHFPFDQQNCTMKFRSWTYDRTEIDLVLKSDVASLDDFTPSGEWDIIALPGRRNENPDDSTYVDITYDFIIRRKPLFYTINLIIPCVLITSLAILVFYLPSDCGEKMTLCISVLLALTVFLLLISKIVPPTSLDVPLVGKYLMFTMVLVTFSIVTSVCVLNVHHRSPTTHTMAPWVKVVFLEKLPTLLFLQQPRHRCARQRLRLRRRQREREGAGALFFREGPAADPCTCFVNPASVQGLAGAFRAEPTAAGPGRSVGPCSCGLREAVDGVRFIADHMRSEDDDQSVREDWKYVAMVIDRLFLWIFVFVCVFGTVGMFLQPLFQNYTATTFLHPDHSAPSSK
Sequence of α1β1γδ subtype of nicotinic acetylcholine receptors (P25109 24-501): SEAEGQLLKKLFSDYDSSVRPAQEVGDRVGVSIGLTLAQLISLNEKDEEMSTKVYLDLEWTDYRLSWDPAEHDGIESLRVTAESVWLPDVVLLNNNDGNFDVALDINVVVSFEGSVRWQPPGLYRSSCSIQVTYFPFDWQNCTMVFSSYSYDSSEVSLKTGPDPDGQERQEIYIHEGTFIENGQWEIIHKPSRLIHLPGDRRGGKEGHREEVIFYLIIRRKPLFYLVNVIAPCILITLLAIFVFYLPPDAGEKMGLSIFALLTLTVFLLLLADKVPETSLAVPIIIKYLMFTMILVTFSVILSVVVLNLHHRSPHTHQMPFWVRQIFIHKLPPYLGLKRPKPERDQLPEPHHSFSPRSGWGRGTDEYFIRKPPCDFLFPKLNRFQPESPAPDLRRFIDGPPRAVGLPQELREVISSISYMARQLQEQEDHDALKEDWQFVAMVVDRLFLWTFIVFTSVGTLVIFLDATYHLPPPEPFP
Sequence of α1β1γδ subtype of nicotinic acetylcholine receptors (P25110 22-517): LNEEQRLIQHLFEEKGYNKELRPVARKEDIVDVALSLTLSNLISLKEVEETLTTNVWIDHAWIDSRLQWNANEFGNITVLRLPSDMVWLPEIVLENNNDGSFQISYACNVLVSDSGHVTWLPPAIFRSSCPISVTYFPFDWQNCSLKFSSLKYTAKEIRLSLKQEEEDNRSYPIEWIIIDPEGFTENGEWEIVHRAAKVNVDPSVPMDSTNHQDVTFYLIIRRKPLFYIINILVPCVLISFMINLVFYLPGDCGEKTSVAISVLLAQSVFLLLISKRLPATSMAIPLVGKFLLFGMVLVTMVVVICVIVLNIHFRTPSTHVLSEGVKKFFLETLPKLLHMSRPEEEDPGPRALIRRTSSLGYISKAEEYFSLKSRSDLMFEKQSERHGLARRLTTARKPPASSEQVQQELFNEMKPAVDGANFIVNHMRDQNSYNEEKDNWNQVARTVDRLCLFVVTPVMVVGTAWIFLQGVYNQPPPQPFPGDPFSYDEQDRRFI
Sequence of α1β1γδ subtype of nicotinic acetylcholine receptors (P25108 21-457): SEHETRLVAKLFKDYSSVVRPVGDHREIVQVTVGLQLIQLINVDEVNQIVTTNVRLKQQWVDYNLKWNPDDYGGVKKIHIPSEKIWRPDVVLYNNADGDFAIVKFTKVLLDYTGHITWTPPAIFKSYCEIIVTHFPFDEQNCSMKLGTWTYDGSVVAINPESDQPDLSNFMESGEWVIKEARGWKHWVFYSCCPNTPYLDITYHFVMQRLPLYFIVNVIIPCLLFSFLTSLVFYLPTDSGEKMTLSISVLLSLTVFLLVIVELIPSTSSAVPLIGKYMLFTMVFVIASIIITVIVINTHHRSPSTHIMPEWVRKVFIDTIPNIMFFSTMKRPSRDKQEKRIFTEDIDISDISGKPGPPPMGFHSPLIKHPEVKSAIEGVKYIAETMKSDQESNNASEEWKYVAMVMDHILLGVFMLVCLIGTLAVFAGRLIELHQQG

SMILES | Ki [1] [nM] | remaining activity at 100 µM [2] [%] | remaining activity at 1000 µM [2] [%] | Ki [2] [nM] | Ki [1, 3] [nM]
CN1CCCN=C1c1ccc(Cl)nc1 [Compound 4, 2-(6-chloro-3-pyridyl)-1-methyl-1,4,5,6-tetrahydropyrimidine] | 67 | 46 | 16 |  | 
Clc1ccc(CC2=NCCN2)cn1 [Compound 7, 2-(6-chloro-3-pyridyl)methyl-2-imidazoline] | 86 | 80 | 51 |  | 
Clc1ccc(CC2=NCCCN2)cn1 [Compound 8, 2-(6-chloro-3-pyridyl)methyl-1,4,5,6-tetrahydropyrimidine] | 29 |  |  | 395000 | 
CN1CCN=C1Cc1ccc(Cl)nc1 [Compound 9, 2-(6-chloro-3-pyridyl)methyl-1-methyl-2-imidazoline] | 7.7 | 43 | 16 |  | 
CN1CCCN=C1Cc1ccc(Cl)nc1 [Compound 10, 2-(6-chloro-3-pyridyl)methyl-1-methyl-1,4,5,6-tetrahydropyrimidine] | 1 | 40 | 17 |  | 
CC1=NCCN1Cc1ccc(Cl)nc1 [Compound 11, 1-(6-chloro-3-pyridyl)methyl-2-methyl-2-imidazoline] | 115 | 74 | 53 |  | 
CC1(C)CN(Cc2ccc(Cl)nc2)C=N1 [Compound 12, 1-(6-chloro-3-pyridyl)methyl-4,4-dimethyl-2-imidazoline] | 268 | 79 | 42 |  | 
C1CN=C(CC2CCOC2)NC1 (stereo not drawn) [Compound 15, 2-(tetrahydrofuran-3-yl)methyl-1,4,5,6-tetrahydropyrimidine] |  |  |  |  | 950
Brc1cncc(CC2=NCCCN2)c1 [Compound 16, 2-(5-bromo-3-pyridyl)methyl-1,4,5,6-tetrahydropyrimidine] | 392 | 63 | 30 |  | 
c1cncc(CC2=NCCCN2)c1 [Compound 18, 2-(3-pyridyl)methyl-1,4,5,6-tetrahydropyrimidine] | 86 | 62 | 18 |  | 
c1cncc(CC2=NCCN2)c1 [Compound 19, 2-(3-pyridyl)methyl-2-imidazoline] |  | 69 | 29 |  | 
c1ccc2ncc(C3=NCCCN3)cc2c1 [Compound 25, 2-(3-quinolyl)-1,4,5,6-tetrahydropyrimidine] |  | 41 | 7 |  | 338
CC1=NCC(c2cccnc2)N1 (stereo not drawn) [Compound 32, 2-methyl-5-(3-pyridyl)-2-imidazoline] |  | 69 | 35 |  | 580
C1=NCC(c2cccnc2)N1 (stereo not drawn) [Compound 33, 5-(3-pyridyl)-2-imidazoline] | 365 |  |  |  | 
Clc1cc(CC2=NCCCN2)cnc1Cl [Compound 36, 2-(5,6-dichloro-3-pyridyl)methyl-1,4,5,6-tetrahydropyrimidine] | 124 | 81 | 34 |  | 
Cc1ccc(CC2=NCCCN2)cn1 [Compound 43, 2-(6-methyl-3-pyridyl)methyl-1,4,5,6-tetrahydropyrimidine] | 167 | 71 | 28 |  | 
Fc1ccc(CC2=NCCCN2)cn1 [Compound 48, 2-(6-fluoro-3-pyridyl)methyl-1,4,5,6-tetrahydropyrimidine] | 82 |  |  | 257000 | 
Clc1cc(CC2=NCCN2)cnc1Cl [Compound 49, 2-(5,6-dichloro-3-pyridyl)methyl-2-imidazoline] |  |  |  | 773000 | 211
Clc1cc(CN2C=NCCC2)cnc1Cl [Compound 52, 1-(5,6-dichloro-3-pyridyl)methyl-1,4,5,6-tetrahydropyrimidine] | 1.2 |  |  | 23000 | 
